Molecular target: ALK tyrosine kinase receptor (Homo sapiens, UniProt Q9UM73)
Test: Inhibition Assay: 1× Kinase Buffer 50 mM HEPES. pH 7.5 0.0015% Brij-35 10 mM MgCl2 2 mM DTT 2) stop buffer 100 mM HEPES, pH 7.5 0.015% Brij-35 0.2% Coating Reagent #3 50 mM EDTAPrepare a Compound Solution to be Tested Step 2.1 Dilute the compound to 50× of the final desired highest inhibitor concentration in reaction by 100% DMSO. Transfer 100 μl of this compound dilution to a well in a 96-well plate. For example, if desired highest inhibitor concentration is 1 μM, then prepare 50 μM of compound DMSO solution in this step.

Chain of ALK tyrosine kinase receptor (Q9UM73 whole entry): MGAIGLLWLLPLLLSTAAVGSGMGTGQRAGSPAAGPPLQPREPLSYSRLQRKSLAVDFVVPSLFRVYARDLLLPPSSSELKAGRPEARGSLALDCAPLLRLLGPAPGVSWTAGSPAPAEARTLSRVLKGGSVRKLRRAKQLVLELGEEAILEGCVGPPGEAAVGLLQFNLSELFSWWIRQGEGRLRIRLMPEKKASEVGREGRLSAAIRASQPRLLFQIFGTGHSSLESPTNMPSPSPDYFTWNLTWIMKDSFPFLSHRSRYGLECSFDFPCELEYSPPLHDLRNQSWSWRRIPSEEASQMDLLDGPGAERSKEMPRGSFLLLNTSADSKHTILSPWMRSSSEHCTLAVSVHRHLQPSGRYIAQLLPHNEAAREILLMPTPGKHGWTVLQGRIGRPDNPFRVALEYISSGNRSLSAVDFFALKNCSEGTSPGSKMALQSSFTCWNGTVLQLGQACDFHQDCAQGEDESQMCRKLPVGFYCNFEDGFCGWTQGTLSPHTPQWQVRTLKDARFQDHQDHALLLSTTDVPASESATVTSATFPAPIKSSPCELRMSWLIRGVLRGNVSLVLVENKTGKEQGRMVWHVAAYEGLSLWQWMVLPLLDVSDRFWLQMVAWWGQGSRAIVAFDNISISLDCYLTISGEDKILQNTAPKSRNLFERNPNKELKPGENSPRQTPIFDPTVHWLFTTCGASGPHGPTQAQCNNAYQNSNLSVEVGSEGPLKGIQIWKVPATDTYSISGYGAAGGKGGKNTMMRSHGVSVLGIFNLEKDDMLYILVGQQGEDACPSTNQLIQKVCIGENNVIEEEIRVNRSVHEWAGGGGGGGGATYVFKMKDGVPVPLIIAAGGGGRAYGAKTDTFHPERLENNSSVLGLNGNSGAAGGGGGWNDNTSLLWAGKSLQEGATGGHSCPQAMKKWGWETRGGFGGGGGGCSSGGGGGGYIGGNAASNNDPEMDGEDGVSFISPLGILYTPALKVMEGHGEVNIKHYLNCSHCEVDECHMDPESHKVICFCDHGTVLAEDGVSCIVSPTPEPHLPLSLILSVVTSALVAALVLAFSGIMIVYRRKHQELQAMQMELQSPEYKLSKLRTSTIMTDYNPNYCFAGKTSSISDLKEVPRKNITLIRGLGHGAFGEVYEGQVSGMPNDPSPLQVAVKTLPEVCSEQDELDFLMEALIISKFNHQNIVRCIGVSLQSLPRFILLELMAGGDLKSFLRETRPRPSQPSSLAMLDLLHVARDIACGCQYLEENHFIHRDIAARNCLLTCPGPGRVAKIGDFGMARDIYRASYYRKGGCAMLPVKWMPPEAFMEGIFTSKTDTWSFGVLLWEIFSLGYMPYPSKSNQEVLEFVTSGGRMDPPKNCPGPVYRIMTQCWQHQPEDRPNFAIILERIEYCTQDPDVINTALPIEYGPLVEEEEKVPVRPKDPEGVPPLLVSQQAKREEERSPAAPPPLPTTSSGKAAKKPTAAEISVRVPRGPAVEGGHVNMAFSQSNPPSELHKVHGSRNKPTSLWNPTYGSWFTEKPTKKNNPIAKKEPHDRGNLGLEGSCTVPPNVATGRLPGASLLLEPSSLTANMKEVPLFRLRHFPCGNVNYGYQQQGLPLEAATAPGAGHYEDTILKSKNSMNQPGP

IC50, < 1 nM:
COc1cc(N2CCC(N(C)C)CC2)ccc1Nc1ncc(Cl)c(Nc2ccsc2S(=O)(=O)C(C)C)n1
COc1cc(N2CCC(N(C)C)CC2)ccc1Nc1ncc(Cl)c(Nc2ccccc2S(=O)(=O)C(C)C)n1
COc1cc(N2CCC(N3CCOCC3)CC2)ccc1Nc1ncc(Cl)c(Nc2ccsc2S(=O)(=O)C(C)C)n1
COc1cc(N2CCC(N3CCC(N(C)C)CC3)CC2)ccc1Nc1ncc(Cl)c(Nc2ccccc2S(=O)(=O)C(C)C)n1
COc1cc(N2CCC(O)CC2)ccc1Nc1ncc(Cl)c(Nc2ccsc2S(=O)(=O)C(C)C)n1
COc1cc(N2CCOCC2)ccc1Nc1ncc(Cl)c(Nc2ccsc2S(=O)(=O)C(C)C)n1
COc1cc(N2CCN(C)CC2)ccc1Nc1ncc(Cl)c(Nc2ccsc2S(=O)(=O)C(C)C)n1
CC(C)S(=O)(=O)c1ccccc1Nc1nc(Nc2ccc(N3CCC(N(C)C)CC3)cc2OC(F)F)ncc1Cl
COc1cc(N2CCN(C)CC2)ccc1Nc1ncc(Cl)c(Nc2ccccc2S(=O)(=O)C(C)C)n1

— ChEMBL document CHEMBL5727778, “Pyrimidine derivative and use thereof” (2020)
